Source: publication PMC12508156, “Non-canonical dihydrolipoyl transacetylase promotes chemotherapy resistance via mitochondrial tetrahydrofolate signaling” (Nature Communications, 2025)

What was measured:
[1] = tested on: lung cancer patient-derived xenograft tumors; test: IHC of lung cancer PDX tumors (Ac-K44 MTHFD2, MT-CO2, DLAT); format: in vivo, athymic nu/nu mice; set-up: key: IHC intensity score 0 to 3+; settings: lung cancer PDX tumors (Figure 8M)
Text: Formalin-fixed and paraffin-embedded tumor tissue specimens from HNSCC and NSCLC patients were obtained from the […] Cancer Tissue and Pathology Shared Resources. The Institutional Review Board (IRB) of Emory University approved using human specimens (IRB00003208 - HNSCC, IRB00098377 - NSCLC). Clinical samples were collected with informed consent according to the Health Insurance Portability and Accountability Act. Patients' clinical information was obtained through the […] Technology Applications Shared Resource. Tumors from HNSCC or NSCLC patients who received chemotherapy-containing regimens were used. Immunohistochemistry (IHC) staining of DLAT, acetyl-[…] MTHFD2, MT-CO2, and Ki-67 was performed based on the established protocol. Antigen retrieval was conducted in Tris-EDTA (pH 9.0) for acetyl-[…] MTHFD2 and MT-CO2 and sodium citrate (pH 6.0) for the remaining antigens. […] Assessment of positive DLAT, MT-CO2, and acetyl-[…] MTHFD2 staining intensity within tumor cells was performed using a scoring system ranging from 0 to 3+ based on IHC signal intensity. Mice were subcutaneously injected into the flank with 1 × 10^6 KB-3-1^cisR cells with or without DLAT knockdown. […] Tumors were collected at the experimental endpoint, and tumor proliferation was assessed using Ki-67 IHC staining. The localization, penetration, and efficacy of DMp39 were monitored by assessing the acetyl-[…] levels in tumors and fluorescence imaging analysis using an IVIS imaging system. Drug-induced organ toxicities, including splenomegaly, liver damage, and kidney injury, were monitored by assessing spleen index, alanine transaminase activity, and cystatin C levels in plasma.

[2] = tested on: NADPH; test: NADPH level (NADP/NADPH-Glo); format: cell-based, human
Protocol: Cellular metabolic states were examined through various assays. To gauge the levels of total intracellular or mitochondrial reactive oxygen species (ROS), cells were stained with CM-H2DCFDA or mitoSOX, respectively. Intracellular H2O2, NADPH, acetyl-CoA, and GSH/GSSG ratios were quantified using commercial assay kits as listed in the Reagents. Intracellular ATP levels were determined utilizing the ATP bioluminescent somatic cell assay and normalized to the total protein concentrations. The de novo synthesized RNA and proteins were assessed in cancer cells using commercial assays following the manufacturer’s protocols. In brief, O-propargyl-puromycin or uridine analog, 5-EU, was applied to stop translation or modify RNA. Polypeptides or modified RNA were measured using fluorescent azide with Ex/Em at 494/521 nm. PDC activity was determined by measuring the reduction of NAD+ to NADH during the conversion of pyruvate into acetyl-CoA. […]
A549cisR (a) and KB-3-1cisR (b) cells were transduced with control or […]
µg/ml; KB-3-1cisR: 5 µg/ml) for 24 h. The GSH/GSSG ratio and relative NADPH levels were measured using GSH/GSSG-Glo Assay and NADP/NADPH-Glo Assay, respectively. Error bars represent SD and are from 4 independent biological replicates for the upper panels of (a,b) and 3 for the lower panels of (a,b). P values were determined by one-way ANOVA.
(1 picture or pasted object on this page, not shown here)

[3] = tested on: ATP; test: Intracellular ATP level; format: cell-based, human; set-up: unit not given here
Protocol: Cellular metabolic states were examined through various assays. To gauge the levels of total intracellular or mitochondrial reactive oxygen species (ROS), cells were stained with CM-H2DCFDA or mitoSOX, respectively. Intracellular H2O2, NADPH, acetyl-CoA, and GSH/GSSG ratios were quantified using commercial assay kits as listed in the Reagents. Intracellular ATP levels were determined utilizing the ATP bioluminescent somatic cell assay and normalized to the total protein concentrations. The de novo synthesized RNA and proteins were assessed in cancer cells using commercial assays following the manufacturer’s protocols. In brief, O-propargyl-puromycin or uridine analog, 5-EU, was applied to stop translation or modify RNA. Polypeptides or modified RNA were measured using fluorescent azide with Ex/Em at 494/521 nm. PDC activity was determined by measuring the reduction of NAD+ to NADH during the conversion of pyruvate into acetyl-CoA.

## N.N.[Cl][Pt][Cl] [cisplatin]
[1]; n=1
  Ac-K44 (IHC score): 2
  DLAT (IHC score): 1
  MT-CO2 (IHC score): 3
[1]; n=2
  Ac-K44 (IHC score): 2
  DLAT (IHC score): 2
  MT-CO2 (IHC score): 3
[1]; n=3
  Ac-K44 (IHC score): 3
  DLAT (IHC score): 3
  MT-CO2 (IHC score): 3
[1]; n=4
  Ac-K44 (IHC score): 3
  DLAT (IHC score): 2
  MT-CO2 (IHC score): 2
[1]; n=5
  Ac-K44 (IHC score): 2
  DLAT (IHC score): 2
  MT-CO2 (IHC score): 3
[2]; A549cisR cells, pLKO.1, n=1
  NADPH: 0.7373
[2]; A549cisR cells, pLKO.1, n=2
  NADPH: 0.7802
[2]; A549cisR cells, pLKO.1, n=3
  NADPH: 0.7845
[2]; A549cisR cells, shDLAT, n=1
  NADPH: 0.3926
[2]; A549cisR cells, shDLAT, n=2
  NADPH: 0.3967
[2]; A549cisR cells, shDLAT, n=3
  NADPH: 0.3159
[2]; A549cisR, CTL, sheet Figure 5G, replicate n=1
  NADPH: 0.971
[2]; A549cisR, CTL, sheet Figure 5G, replicate n=2
  NADPH: 0.9727
[2]; A549cisR, CTL, sheet Figure 5G, replicate n=3
  NADPH: 1.056
[2]; A549cisR, shDLAT+Flag-MTHFD2 (K44Q), sheet Figure 5G, replicate n=1
  NADPH: 1.569
[2]; A549cisR, shDLAT+Flag-MTHFD2 (K44Q), sheet Figure 5G, replicate n=2
  NADPH: 1.336
[2]; A549cisR, shDLAT+Flag-MTHFD2 (K44Q), sheet Figure 5G, replicate n=3
  NADPH: 1.475
[2]; A549cisR, shDLAT+Flag-MTHFD2 (K44R), sheet Figure 5G, replicate n=1
  NADPH: 0.5654
[2]; A549cisR, shDLAT+Flag-MTHFD2 (K44R), sheet Figure 5G, replicate n=2
  NADPH: 0.5995
[2]; A549cisR, shDLAT+Flag-MTHFD2 (K44R), sheet Figure 5G, replicate n=3
  NADPH: 0.6728
[2]; A549cisR, shDLAT, sheet Figure 5G, replicate n=1
  NADPH: 0.5978
[2]; A549cisR, shDLAT, sheet Figure 5G, replicate n=2
  NADPH: 0.6166
[2]; A549cisR, shDLAT, sheet Figure 5G, replicate n=3
  NADPH: 0.6336
[2]; KB-3-1cisR cells, pLKO.1, n=1
  NADPH: 0.8565
[2]; KB-3-1cisR cells, pLKO.1, n=2
  NADPH: 0.8236
[2]; KB-3-1cisR cells, pLKO.1, n=3
  NADPH: 0.8268
[2]; KB-3-1cisR cells, shDLAT, n=1
  NADPH: 0.3931
[2]; KB-3-1cisR cells, shDLAT, n=2
  NADPH: 0.4089
[2]; KB-3-1cisR cells, shDLAT, n=3
  NADPH: 0.429
[2]; KB-3-1cisR, CTL, sheet Figure 5G, replicate n=1
  NADPH: 0.9984
[2]; KB-3-1cisR, CTL, sheet Figure 5G, replicate n=2
  NADPH: 0.9855
[2]; KB-3-1cisR, CTL, sheet Figure 5G, replicate n=3
  NADPH: 1.016
[2]; KB-3-1cisR, shDLAT+Flag-MTHFD2 (K44Q), sheet Figure 5G, replicate n=1
  NADPH: 1.788
[2]; KB-3-1cisR, shDLAT+Flag-MTHFD2 (K44Q), sheet Figure 5G, replicate n=2
  NADPH: 1.788
[2]; KB-3-1cisR, shDLAT+Flag-MTHFD2 (K44Q), sheet Figure 5G, replicate n=3
  NADPH: 1.859
[2]; KB-3-1cisR, shDLAT+Flag-MTHFD2 (K44R), sheet Figure 5G, replicate n=1
  NADPH: 0.4153
[2]; KB-3-1cisR, shDLAT+Flag-MTHFD2 (K44R), sheet Figure 5G, replicate n=2
  NADPH: 0.3927
[2]; KB-3-1cisR, shDLAT+Flag-MTHFD2 (K44R), sheet Figure 5G, replicate n=3
  NADPH: 0.4088
[2]; KB-3-1cisR, shDLAT, sheet Figure 5G, replicate n=1
  NADPH: 0.404
[2]; KB-3-1cisR, shDLAT, sheet Figure 5G, replicate n=2
  NADPH: 0.4217
[2]; KB-3-1cisR, shDLAT, sheet Figure 5G, replicate n=3
  NADPH: 0.4378
[3]; A549cisR, pLKO.1, n=1 (Figure 3B)
  ATP level: 1.319
[3]; A549cisR, pLKO.1, n=2 (Figure 3B)
  ATP level: 1.28
[3]; A549cisR, pLKO.1, n=3 (Figure 3B)
  ATP level: 1.1923
[3]; A549cisR, shDLAT, n=1 (Figure 3B)
  ATP level: 1.405
[3]; A549cisR, shDLAT, n=2 (Figure 3B)
  ATP level: 1.318
[3]; A549cisR, shDLAT, n=3 (Figure 3B)
  ATP level: 1.292
[3]; KB-3-1cisR, pLKO.1, n=1 (Figure 3B)
  ATP level: 1.593
[3]; KB-3-1cisR, pLKO.1, n=2 (Figure 3B)
  ATP level: 1.725
[3]; KB-3-1cisR, pLKO.1, n=3 (Figure 3B)
  ATP level: 1.722
[3]; KB-3-1cisR, shDLAT, n=1 (Figure 3B)
  ATP level: 1.707
[3]; KB-3-1cisR, shDLAT, n=2 (Figure 3B)
  ATP level: 1.7048
[3]; KB-3-1cisR, shDLAT, n=3 (Figure 3B)
  ATP level: 1.693
